This passage reports IC50 results from PubChem BioAssay AID1117337 (Cheminformatics & Chemogenomics Research Group (CCRG), …, 2015).

Each structure is given as a SMILES string. Activity calls are given as the source filed them. How the calls were made is not given here.

In this test the test system is ADSC/ECFC co-culture, VEGF-stimulated, CD31 tube area. Description: inhibition of endothelial tube formation, dose response, imaging, VEGF stimulation, CD31 staining, tube area, IC50 (AID 1117337).
In the case of `O=C(N/N=C/c1ccccc1O)c1ccncc1`, the IC50 (in general, the concentration at which inhibition is half-maximal) was > 10 µM (inactive).
For `COc1cc(-c2ccc(=O)[nH]n2)ccc1OC(F)F` the value was 1.22 µM.
For `COc1ccc(-c2ccc3cc(C(=O)O)ccc3c2)cc1C12CC3CC(CC(C3)C1)C2` the value was 0.524 µM; for `Cc1cc(N)c2ccccc2[n+]1CCCCCCCCCC[n+]1c(C)cc(N)c2ccccc21`, > 10 µM (inactive); for `COC(=O)Nc1nc2ccc(Sc3ccccc3)cc2[nH]1`, 0.207 µM.
For `O=C(Nc1ccc([N+](=O)[O-])cc1Cl)c1cc(Cl)ccc1O` the value was 0.112 µM; for `CCN(CC)CCNC(=O)c1c(C)[nH]c(/C=C2\C(=O)Nc3ccc(F)cc32)c1C`, 0.0254 µM; for `CCOC(=O)[C@H](CCc1ccccc1)N[C@@H](C)C(=O)N1C(=O)N(C)C[C@H]1C(=O)O`, > 10 µM (inactive).
Take `COc1ccc(-c2nc3ccc(C4=NNC(=O)CC4C)cc3[nH]2)cc1` (stereo not drawn): the IC50 is 2.89 µM.
The figure for `C[C@H]1O[C@@H](O[C@H]2CC[C@@]3(C)[C@H](CC[C@@H]4[C@@H]3C[C@@H](O)[C@]3(C)[C@@H](C5=CC(=O)OC5)CC[C@]43O)C2)C[C@H](O)[C@@H]1O[C@H]1C[C@H](O)[C@H](O[C@H]2C[C@H](O)[C@H](O[C@@H]3O[C@H](CO)[C@@H](O)[C@H](O)[C@H]3O)[C@@H](C)O2)[C@@H](C)O1` is 0.0614 µM.
The figure for `Cc1cc2nc3ccc(=[N+](C)C)cc-3sc2cc1N` is 2.45 µM; for `CCCCC(=O)O[C@H]1CC[C@H]2[C@@H]3CCc4cc(O)ccc4[C@@H]3CC[C@]12C` it is > 10 µM (inactive).
The figure for `CO[C@@]12[C@H](COC(N)=O)C3=C(C(=O)C(C)=C(N)C3=O)N1C[C@@H]1N[C@@H]12` is 0.102 µM; for `CCCCCCCCOc1ccccc1C(=O)Nc1ccc(C(=O)OCC[N+](C)(CC)CC)cc1` it is > 10 µM (inactive); for `CN1CCN(CCCN2c3ccccc3Sc3ccc(C(F)(F)F)cc32)CC1` it is > 10 µM (inactive).
Take `CN1CCN(CCCN2c3ccccc3Sc3ccc(S(=O)(=O)N(C)C)cc32)CC1`: the IC50 was > 10 µM (inactive).
Turning to `CCOc1ccc2nc3cc(N)ccc3c(N)c2c1`, the IC50 is 4.94 µM.
With `CCCCCCCCCCCCCCCC(=O)OCC=C(C)C=CC=C(C)C=CC1=C(C)CCCC1(C)C`, the IC50 was > 10 µM (inactive).
In the case of `COC(=O)C1=C(C)NC(C)=C(C(=O)OC(C)(C)CN(C)CCC(c2ccccc2)c2ccccc2)C1c1cccc([N+](=O)[O-])c1` (stereo not drawn), the IC50 is > 10 µM (inactive).
As for `COc1cccc(CCc2ccccc2OCC(CN(C)C)OC(=O)CCC(=O)O)c1` (stereo not drawn), the IC50 was > 10 µM (inactive).
In the case of `CCN(CC)CCOc1ccc(C(O)(Cc2ccc(Cl)cc2)c2ccc(C)cc2)cc1` (stereo not drawn), the IC50 was 3.21 µM.
For the compound `CCN(CC)CCNc1ccc(CO)c2sc3ccccc3c(=O)c12`, the IC50 is 8.35 µM (inactive).
For `CC1=C(C(=O)OC(C)C)C(c2cccc([N+](=O)[O-])c2)C(C(=O)OC2CN(C(c3ccccc3)c3ccccc3)C2)=C(N)N1` (stereo not drawn), the IC50 was 3.58 µM.
For the compound `Nc1nc(=O)n([C@@H]2O[C@H](CO)[C@@H](O)[C@@H]2F)cc1I`, the IC50 was 3.47 µM.
For `CCC1Nc2cc(Cl)c(S(N)(=O)=O)cc2S(=O)(=O)N1` (stereo not drawn) the value was > 10 µM (inactive); for `CC(C)=CCOc1ccc(/C=C/C(=O)c2ccc(OCC=C(C)C)cc2OCC(=O)O)cc1`, > 10 µM (inactive).
For the compound `O=C(O)CCCc1ccc(N(CCCl)CCCl)cc1`, the IC50 was 1.24 µM.
With `CCOC(=O)[C@H](CCc1ccccc1)N[C@@H](C)C(=O)N1Cc2cc(OC)c(OC)cc2C[C@H]1C(=O)O`, the IC50 is > 10 µM (inactive).
For `CC[C@]1(O)C[C@H]2CN(CCc3c([nH]c4ccccc34)[C@@](C(=O)OC)(c3cc4c(cc3OC)N(C=O)[C@H]3[C@@](O)(C(=O)OC)[C@H](OC(C)=O)[C@]5(CC)C=CCN6CC[C@]43[C@@H]65)C2)C1` the value was 0.0065 µM; for `COC(=O)Nc1nc2ccc(C(=O)c3ccccc3)cc2[nH]1`, 0.37 µM; for `CC(C(O)c1ccccc1)N(C)C/C=C/c1ccccc1` (stereo not drawn), > 10 µM (inactive).
On to `CCCSc1ccc2nc(NC(=O)OC)[nH]c2c1`, for which the IC50 was 0.355 µM.
The figure for `O=[N+]([O-])c1ccc(Oc2ccc(N=C=S)cc2)cc1` is 3.72 µM; for `COP(=S)(OC)Oc1ccc(Sc2ccc(OP(=S)(OC)OC)cc2)cc1` it is > 10 µM (inactive).
The figure for `CC(=O)N(CC(O)CN(C(C)=O)c1c(I)c(C(=O)NCC(O)CO)c(I)c(C(=O)NCC(O)CO)c1I)c1c(I)c(C(=O)NCC(O)CO)c(I)c(C(=O)NCC(O)CO)c1I` (stereo not drawn) is > 10 µM (inactive).
The figure for `Clc1ccc(C(Cn2ccnc2)OCc2ccsc2Cl)c(Cl)c1` (stereo not drawn) is 5 µM; for `O=c1[nH]sc2cc(Cl)ccc12` it is > 10 µM (inactive).
Take `CSc1ccc2c(c1)C(N1CCN(C)CC1)Cc1ccccc1S2` (stereo not drawn): the IC50 is > 10 µM (inactive).
For `COC(=O)C1=C(C)NC(C)=C(C(=O)O[C@@H]2CCCN(Cc3ccccc3)C2)[C@@H]1c1cccc([N+](=O)[O-])c1`, the IC50 was > 10 µM (inactive).
The figure for `Cc1ccc([N+](=O)[O-])[c]2c1[O][Hg]2` is 0.668 µM; for `CC(=O)[C@]1(O)Cc2c(O)c3c(c(O)c2[C@@H](O[C@H]2C[C@H](N)[C@H](O)[C@H](C)O2)C1)C(=O)c1ccccc1C3=O` it is 0.0208 µM; for `O=C(CCCN1CCC(O)(c2cccc(C(F)(F)F)c2)CC1)c1ccc(F)cc1` it is > 10 µM (inactive).
For `CC1(C)[C@H](C=C(Cl)Cl)[C@@H]1C(=O)OCc1c(F)c(F)cc(F)c1F` the value was > 10 µM (inactive); for `O=C1NCCN1CCN1CCC(c2cn(-c3ccc(F)cc3)c3ccc(Cl)cc23)CC1`, > 10 µM (inactive); for `O=C(O)C1CCC1`, > 10 µM (inactive).
Turning to `CCCCCCCCCCCCCCCCCC[N+](C)(C)CCC[Si](OC)(OC)OC`, the IC50 is > 10 µM (inactive).
For the compound `COc1ccc2cc3[n+](cc2c1OC)CCc1cc2c(cc1-3)OCO2`, the IC50 is 2.68 µM.
The figure for `CC[C@]1(O)CC[C@H]2[C@@H]3CCC4=CCCC[C@@H]4[C@H]3CC[C@@]21C` is 6.25 µM (inactive); for `CC(C)(CO)[C@@H](O)C(=O)NCCC(=O)NCCSSCCNC(=O)CCNC(=O)[C@H](O)C(C)(C)CO` it is > 10 µM (inactive); for `CC12CCC(CC1)C(C)(C)O2` it is > 10 µM (inactive).
For `CC[C@@]1(O)C(=O)OCc2c1cc1n(c2=O)Cc2c-1nc1ccccc1c2/C=N/OC(C)(C)C` the value was 0.002 µM; for `C=CC(C)(O)CCC=C(C)CCC=C(C)C` (stereo not drawn), > 10 µM (inactive).
The figure for `CCCSS/C(CCO)=C(\C)N(C=O)Cc1cnc(C)nc1N` is > 10 µM (inactive); for `CCN[C@@H](C)Cc1cccc(C(F)(F)F)c1` it is > 10 µM (inactive).
`CCOC(=O)c1ccccc1C(=O)OCC`: the IC50 was > 10 µM (inactive).
As to `COC(=O)Nc1nc2ccc(S(=O)c3ccccc3)cc2[nH]1` (stereo not drawn), the IC50 is 0.288 µM.
The figure for `C[C@]12CC[C@@H]3c4ccc(O)cc4CC[C@H]3[C@@H]1CC[C@@H]2OC(=O)CCC1CCCC1` is 6.37 µM (inactive).
The figure for `CCC=CCC=CCC=CCCCCCCCC(=O)O` is > 10 µM (inactive).
